In brackets after ≈: the same amount, converted by molar mass.
Tests used:
Alpha glucosidase = Alpha glucosidase (Homo sapiens, UniProt O43451+P10253+P14410+Q2M2H8); experiment: Inhibition of Alpha-glucosidase (unknown origin) using p-nitrophenyl glucopyranoside as substrate by UV based microplate reader analysis; format: protein assay
MCF7 [1] = experiment: Cytotoxicity against human MCF7 cells assessed as reduction in cell viability by MTS assay; format: functional, cell-based
HCT-116 [2] = experiment: Cytotoxicity against human HCT-116 cells assessed as reduction in cell viability by MTS assay; format: functional, cell-based
Bel-7402 = experiment: Cytotoxicity against human Bel-7402 cells assessed as reduction in cell viability; format: functional, cell-based
Toxoplasma gondii [3] = experiment: Antiparasitic activity against Toxoplasma gondii tachyzoites infected in human HeLa cells; format: functional, organism-based
HeLa [4] = experiment: Antiproliferative activity against human HeLa cells assessed as inhibition of cell growth incubated for 72 hrs by MTT assay; format: functional, cell-based
HepG2 [5] = experiment: Cytotoxicity against human HepG2 cells by MTT assay; format: functional, cell-based
RAW264.7 = experiment: Anti-inflammatory activity in mouse RAW264.7 cells assessed as inhibition of LPS-induced NO production; format: functional, cell-based
Staphylococcus aureus = experiment: Antibacterial activity against Staphylococcus aureus assessed as reduction in microbial growth; format: functional
Bacillus subtilis = experiment: Antibacterial activity against Bacillus subtilis assessed as reduction in microbial growth; format: functional
Escherichia coli = experiment: Antibacterial activity against Escherichia coli assessed as reduction in bacterial cell viability; format: functional
Klebsiella pneumoniae = experiment: Antibacterial activity against Klebsiella pneumoniae assessed as reduction in bacterial growth by broth microdilution method; format: functional
Aspergillus niger = experiment: […] against Aspergillus niger assessed as […] incubated for 24 hrs by agar disc diffusion assay; format: functional
Candida albicans = experiment: Antibacterial activity against Candida albicans assessed as reduction in bacterial growth; format: functional
Fusarium oxysporum = experiment: Antifungal activity against Fusarium oxysporum assessed as inhibition of fungal growth; format: functional
PC-3 = experiment: Antiproliferative activity against human PC-3 cells assessed as reduction in cell growth measured after 24 hrs by MTT assay; format: functional, cell-based; settings: PC-3, 24 h
HeLa [6] = experiment: Cytotoxicity against human HeLa cells assessed as reduction in cell viability incubated for 48 hrs by MTT assay; format: functional, cell-based
[7] = system: Trichophyton mentagrophytes; experiment: Antifungal activity against Trichophyton mentagrophytes assessed as inhibition of microbial growth; format: functional
Nannizzia gypsea = experiment: Antifungal activity against Microsporum gypseum assessed as fungal growth inhibition; format: functional
[8] = system: Trichophyton mentagrophytes; experiment: Antifungal activity against Trichophyton mentagrophytes assessed as inhibition of fungal growth incubated for 48 hrs by serial plate dilution method; format: functional
[9] = Inhibition of hyaluronidase (unknown origin); parameters: species or system Homo sapiens
Toxoplasma gondii [10] = experiment: Antiparasitic activity against Toxoplasma gondii tachyzoites infected in human HeLa cells measured after 24 hrs by MTT assay; format: functional, organism-based
MCF7 [11] = experiment: Cytotoxicity against human MCF7 cells assessed as reduction in cell viability after 48 hrs by SRB assay; format: functional, cell-based; settings: MCF7, 48 h
A549 = experiment: Antiproliferative activity against human A549 cells assessed as reduction in cell viability by MTT assay; format: functional, cell-based
[12] = molecular target: Tyrosine-protein phosphatase non-receptor type 1 (Homo sapiens, UniProt P18031); experiment: Inhibition of Protein tyrosine phosphatase 1B (unknown origin)
Arthrodermataceae = experiment: Antibacterial activity against Arthrodermataceae; format: functional
[13] = system: Mycobacterium tuberculosis; experiment: Antimycobacterial activity against Mycobacterium tuberculosis H37Rv assessed as reduction in bacterial cell growth; format: functional
Leishmania donovani = experiment: Antileishmanial activity against Leishmania donovani assessed as parasite growth inhibition; format: functional, organism-based
[14] = Antioxidant activity assessed as DPPH radical scavenging activity; format: functional
HCT-116 [15] = experiment: Antiproliferative activity against human HCT-116 cells assessed as inhibition of cell growth; format: functional, cell-based
SMMC-7721 = experiment: Cytotoxicity against human SMMC-7721 cells assessed as reduction in cell viability by SRB assay; format: functional, cell-based
HepG2 [16] = experiment: Cytotoxicity against human HepG2 cells assessed as reduction in cell viability by MTT assay; format: functional
Hep 3B2 = experiment: Cytotoxicity against human Hep3B cells assessed as cell growth inhibition by MTT colorimetric assay; format: functional, cell-based
[17] = Cytotoxicity against mouse RAW264.7 cells assessed as reduction in cell viability incubated for 48 hrs by MTT assay; format: toxicity, cell-based

Sequence of Tyrosine-protein phosphatase non-receptor type 1 (P18031 whole entry): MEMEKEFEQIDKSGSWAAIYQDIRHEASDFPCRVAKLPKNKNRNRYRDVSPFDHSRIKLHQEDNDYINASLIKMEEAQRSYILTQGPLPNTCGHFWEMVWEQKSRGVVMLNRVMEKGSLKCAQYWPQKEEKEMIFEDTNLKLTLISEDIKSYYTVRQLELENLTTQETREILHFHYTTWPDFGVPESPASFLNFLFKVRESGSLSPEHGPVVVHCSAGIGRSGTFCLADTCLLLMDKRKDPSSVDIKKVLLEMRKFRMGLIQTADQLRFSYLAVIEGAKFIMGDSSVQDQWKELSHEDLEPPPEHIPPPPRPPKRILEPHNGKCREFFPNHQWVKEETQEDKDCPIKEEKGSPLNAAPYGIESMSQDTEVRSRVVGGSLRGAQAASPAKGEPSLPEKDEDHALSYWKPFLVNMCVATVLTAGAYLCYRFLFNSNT

**Q.** For `C=C(C)[C@@H](C)CC[C@@H](C)C1CC[C@@]2(C)[C@@H]3CC[C@H]4[C@H](C)c5[nH]c6ccccc6c5C[C@@]45C[C@@]35CC[C@]12C` (stereo partly specified), which IC50 (Alpha glucosidase) is on record?
**A.** The IC50 was 115.2 µM.

**Q.** Which results are given for `C=C1C(=O)[C@]23[C@H](OC(=O)c4cc5cc(OC)ccc5[nH]4)[C@H]1CC[C@H]2[C@@]12COC3(O)[C@@H](O)[C@@H]1C(C)(C)CC[C@@H]2O` (single isomer, unassigned)?
**A.** IC50 (MCF7 [1]): 0.39 µM; IC50 (HCT-116 [2]): 0.81 µM; IC50 (Bel-7402): 0.83 µM

**Q.** For `COc1cc(C(=O)/C=C/c2c[nH]c3ccccc23)cc([Se]C)c1OC`, which IC50 (Toxoplasma gondii [3]; Toxoplasma gondii, HeLa) is on record?
**A.** Its IC50 is 0.023 µM.

**Q.** And the IC50 (HeLa [4])?
**A.** The IC50 was 0.059 µM.

**Q.** For `COc1ccc(C(=O)/C=C/c2ccc3c(ccn3C)c2)c2c1C=CC(C)(C)O2`, which IC50 (HepG2 [5]) is on record?
**A.** The IC50 was 0.82 µM.

**Q.** For `NC(Cc1c[nH]c2ccccc12)C(=O)Oc1ccc2c(=O)c3ccccc3oc2c1` (stereo unspecified), which IC50 (RAW264.7) is on record?
**A.** The IC50 was 26 µg/mL (≈ 65.3 µM).

**Q.** And the MIC (Staphylococcus aureus)?
**A.** The MIC was 16 µg/mL.

**Q.** What about the MIC (Bacillus subtilis) of the same compound?
**A.** The MIC was 16 µg/mL.

**Q.** And the MIC (Escherichia coli)?
**A.** The MIC was 15 µg/mL (≈ 37.6 µM).

**Q.** And the MIC (Klebsiella pneumoniae)?
**A.** The MIC was 22 µg/mL (≈ 55.2 µM).

**Q.** And the MIC (Aspergillus niger)?
**A.** The MIC was 21 µg/mL (≈ 52.7 µM).

**Q.** And the MIC (Candida albicans)?
**A.** The MIC was 20 µg/mL (≈ 50.2 µM).

**Q.** And the MIC (Fusarium oxysporum)?
**A.** Its MIC is 20 µg/mL (≈ 50.2 µM).

**Q.** With SPIRAMYCIN as the compound, how does the IC50 (Toxoplasma gondii [3]) read?
**A.** The IC50 was 262 µM.

**Q.** Which IC50 (PC-3) does the source give for `COc1ccc(/C=C/C(=O)/C=C/c2c[nH]c3ccccc23)c(OC)c1OC` here?
**A.** The IC50 was 3.15 µM.

**Q.** What about the IC50 (HeLa [6]) of the same compound?
**A.** The IC50 was 3.31 µM.

**Q.** What does the source list for `COc1cc(/C=C/C(=O)c2c[nH]c3ccccc23)cc(Br)c1OC`?
**A.** MIC [7]: 16 µg/mL; MIC (Nannizzia gypsea): 1 µg/mL (≈ 2.59 µM); MIC [8]: 32 µg/mL (≈ 82.8 µM)

**Q.** Which IC50 [9] does the source give for `CC1(C)CC[C@]2(C(=O)O)CC[C@]3(C)C(=CC[C@@H]4[C@@]5(C)Cc6c([nH]c7c(F)cc(F)cc67)C(C)(C)[C@@H]5CC[C@]43C)[C@@H]2C1` here?
**A.** Its IC50 is 9.97 µM.

**Q.** For `C[C@@H]1CC[C@H]2[C@@H](C)C(OC(=O)c3cc4cc(Cl)ccc4[nH]3)O[C@@H]3O[C@@]4(C)CC[C@@H]1[C@]32OO4` (stereo partly specified), which IC50 (Toxoplasma gondii [10]) is on record?
**A.** Its IC50 is 85.3 µM.

**Q.** What about the IC50 (MCF7 [11]) of the same compound?
**A.** The IC50 was 5.25 µM.

**Q.** What about the IC50 (A549) of the same compound?
**A.** The IC50 was 6.17 µM.

**Q.** Which IC50 [12] does the source give for `CC1(C)c2[nH]c3ccc(C(F)(F)F)cc3c2C[C@]2(C)[C@H]3C(=O)C=C4[C@@H]5C[C@@](C)(C(=O)O)CC[C@]5(C)CC[C@@]4(C)[C@]3(C)CC[C@@H]12` here?
**A.** The IC50 was 4.3 µM.

**Q.** Which MIC [7] does the source give for `COc1ccc(/C=C/C(=O)c2c[nH]c3ccccc23)cc1` here?
**A.** The MIC was 8 µg/mL.

**Q.** And the MIC (Nannizzia gypsea)?
**A.** The MIC was 4 µg/mL (≈ 14.4 µM).

**Q.** What about the MIC (Arthrodermataceae) of the same compound?
**A.** The MIC was 8 µg/mL (≈ 28.8 µM).

**Q.** Which MIC [13] does the source give for `O=C(c1ccncc1)n1nc(-c2c[nH]c3ccccc23)cc1-c1cc2ccccc2oc1=O` here?
**A.** Its MIC is 2.02 µM (≈ 0.874 µg/mL).

**Q.** Which IC50 (Leishmania donovani) does the source give for `O=C(CCC(c1ccccc1)c1c[nH]c2ccccc12)c1c(O)c2ccccc2oc1=O` (stereo unspecified) here?
**A.** The IC50 was 95.5 µg/mL (≈ 226 µM).

**Q.** What about the IC50 [14] of the same compound?
**A.** Its IC50 is 12.4 µM.

**Q.** Which IC50 (HCT-116 [15]) does the source give for `COc1cc(C(=O)/C(C)=C/c2c[nH]c3cc(F)ccc23)cc(OC)c1OCCN` here?
**A.** Its IC50 is 0.0032 µM.

**Q.** With `CCOC(=O)c1ccc2c(c1)c1c(n2CCN2CCNCC2)-c2cc(C(C)C)ccc2[C@@]2(C)CCC[C@@](C)(C(=O)OC)[C@H]12` as the compound, how does the IC50 (SMMC-7721) read?
**A.** The IC50 was under 1.39 µM.

**Q.** And the IC50 (HepG2 [16])?
**A.** Its IC50 is 0.51 µM.

**Q.** What about the IC50 (Hep 3B2) of the same compound?
**A.** Its IC50 is under 0.73 µM.

**Q.** For `C=C(C)[C@@H]1CC[C@]2(C)CC[C@]3(C)[C@H](CC[C@@H]4[C@@]5(C)Cc6c([nH]c7cc(I)ccc67)C(C)(C)[C@@H]5CC[C@]43C)[C@@H]12`, which IC50 at 48 h [17] is on record?
**A.** Its IC50 at 48 h is 22.6 µM.

**Q.** With `CC(=O)Oc1ccc(C(=O)/C=C/c2ccc3c(ccn3C)c2)c2c1C=CC(C)(C)O2` as the compound, how does the IC50 (HepG2 [5]) read?
**A.** Its IC50 is 0.22 µM.

**Q.** What does the source list for `COc1ccc(/C=C/C(=O)c2cn(C)c3ccccc23)cc1`?
**A.** MIC [7]: 8 µg/mL; MIC (Nannizzia gypsea): 1 µg/mL (≈ 3.43 µM); MIC (Arthrodermataceae): 4 µg/mL (≈ 13.7 µM)

— ChEMBL document CHEMBL5356986, “Research status of indole-modified natural products” (RSC Med Chem, 2023)
